Measurements reported in PubChem BioAssay (NCI).
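48-hour exposure; five concentrations; linearly interpolated endpoints. GI50 is the concentration that inhibits growth by half. TGI marks complete inhibition of growth.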

Columns and labels:
Test in all cases: growth of human tumour cells (NCI), 48 h
SN12C renal = system: SN12C renal
LOX IMVI melanoma = system: LOX IMVI melanoma
NCI-H226 lung = system: NCI-H226 lung
SF-268 CNS = system: SF-268 CNS
OVCAR-4 ovarian = system: OVCAR-4 ovarian
HOP-62 NSCLC = system: HOP-62 NSCLC
UACC-62 melanoma = system: UACC-62 melanoma
SK-MEL-2 melanoma = system: SK-MEL-2 melanoma
COLO 205 colon = system: COLO 205 colon
A549 NSCLC = system: A549 NSCLC

Row | SMILES | TGI (SN12C renal) [µM] | TGI (LOX IMVI melanoma) [µM] | TGI (NCI-H226 lung) [µM] | TGI (SF-268 CNS) [µM] | TGI (OVCAR-4 ovarian) [µM] | TGI (HOP-62 NSCLC) [µM] | TGI (UACC-62 melanoma) [µM] | TGI (SK-MEL-2 melanoma) [µM] | TGI (COLO 205 colon) [µM] | TGI (A549 NSCLC) [µM] | GI50 (SN12C renal) [µM] | GI50 (LOX IMVI melanoma) [µM] | GI50 (NCI-H226 lung) [µM] | GI50 (SF-268 CNS) [µM] | GI50 (OVCAR-4 ovarian) [µM] | GI50 (HOP-62 NSCLC) [µM] | GI50 (UACC-62 melanoma) [µM] | GI50 (SK-MEL-2 melanoma) [µM] | GI50 (COLO 205 colon) [µM] | GI50 (A549 NSCLC) [µM]
1 | O=C(NCCCCCCCCCCCCNC(=O)c1cnc2ccccc2n1)c1cnc2ccccc2n1 | > 100 | > 100 | > 100 | > 100 | 29.8 | > 100 | > 100 | > 100 | > 100 | > 100 | – | – | – | – | – | – | – | – | – | –
2 | CC(=O)NNc1nc(C)c(C(=O)NNC(=O)C(=O)Nc2ccc(Cl)c([N+](=O)[O-])c2)s1 | > 100 | > 100 | > 100 | > 100 | > 100 | > 100 | > 100 | > 100 | > 100 | > 100 | – | – | – | – | – | – | – | – | – | –
3 | C/C(=C1/N=C(c2cc([N+](=O)[O-])ccc2Cl)N(c2ccc(Br)cc2)C1=O)c1ccc(N(CCC#N)CCC#N)cc1C | > 100 | 29.1 | > 100 | > 100 | > 100 | > 100 | 97.5 | > 100 | 97 | 62.6 | – | – | – | – | – | – | – | – | – | –
4 | COc1ccc2[nH]c(Cl)c(/C=C3/C(=O)Nc4ccccc43)c2c1 | 14.7 | 11.3 | 19.2 | 36.5 | 14.3 | 1.27 | 2.51 | > 30.8 | 3.25 | 5.36 | 0.339 | 0.345 | 0.782 | 0.939 | 1.13 | 0.523 | 1.11 | 1.2 | 0.427 | 1.2
5 | CC(=O)OC1C[C@H]2C(OC(=O)c3ccccc3)C3C4(OC(C)=O)COC4C[C@H](OC(C)=O)[C@@]3(C)C(OC(C)=O)[C@H](OC(C)=O)C(=C1C)C2(C)C (stereo not given in full) | > 100 | > 100 | > 100 | > 100 | > 100 | > 100 | > 100 | 97.8 | > 100 | > 100 | – | – | – | – | – | – | – | – | – | –
6 | COc1cccc(/C=N/[N-]C(=O)c2ccncc2)c1[O-].[Mn+2].[OH3+] | > 100 | > 100 | 86.5 | 79.5 | > 100 | > 100 | 23.2 | > 100 | > 100 | > 100 | 17.8 | 6.59 | 12.4 | 4.97 | 22.1 | 5.86 | 3.9 | 25.6 | 4.49 | 5.69
7 | Cc1noc2cccc(O)c12 | > 100 | > 100 | > 100 | > 100 | > 100 | > 100 | > 100 | > 100 | > 100 | > 100 | – | – | – | – | – | – | – | – | – | –
8 | C[C@@H](O)[C@@H](C)Oc1nc(Nc2ccc(S(=N)(=O)C3CC3)cc2)ncc1C(F)(F)F (stereo not given in full) | > 100 | 10.7 | 0.106 | 0.726 | 26.9 | 16.4 | 0.0931 | 0.0621 | 0.0328 | 15.6 | 0.0342 | 0.0178 | 0.0288 | 0.03 | 0.0442 | 0.0283 | 0.0249 | 0.0219 | 0.0158 | 0.0298
